Measurements from paper PMC8597039, “Fluorescent Amino Acid Initiated de novo Cyclic Peptides for the Label‐Free Assessment of Cell Permeability” (Chemmedchem, 2021).
Where a SMILES comes first, the peptide text is derived from it. [ ]: non-standard residue; d: D form. Ala(azulen-1-yl) = N[C@@H](Cc1ccc2cccccc1-2)C(=O)O; Trp(4-CN) = N#Cc1cccc2[nH]cc(C[C@H](N)C(=O)O)c12

Test system: U2OS cells
Test: Live cell fluorescence microscopy of peptide uptake
Conditions: 37 °C, excitation 340 nm
[1] = 50 µM peptide in OPTI-MEM, 20 min, 0.5% DMSO, washed once, ET460/50m (4CNW) or ET395/25x (AzAla) emission filter

Method: To evaluate their suitability for tracking peptide penetration into cells, 4CNW/AzAla were appended onto the N‐terminus of a well‐characterized cell penetrating peptide, TAT‐NLS P3 (tryptophan was included as a negative control). Human bone osteosarcoma epithelial cells (U2OS) were incubated with peptides 4CNW‐P3, AzAla‐P3, W‐P3 for 20 minutes at a concentration of 50 μM in OPTI‐MEM. A moderate concentration (50 μM) of peptide was required for detection due to current limitations in the sensitivity of our microscopy system. Cells were then washed once with OPTI‐MEM and imaged on a Nikon Ti Eclipse inverted microscope with fluorescence excitation at 340 nm. An ET460/50 m single bandpass emission filter was used to image 4CNW‐P3 and a ET395/25x single bandpass emission filter was used to image AzAla‐P3.
Figure 3 Uptake of 4CNW/AzAla labelled peptides by living cells. a Live cell fluorescence microscopy images of U2OS cells after 20 min incubation with linear/cyclic peptides (50 μM). Fluorescence of peptides is shown in blue (4CNW) or cyan (AzAla). Scale bar: 20 μm. Images were obtained by using fluorescence excitation at 340 nm with a ET460/50 m (4CNW) or ET395/25x (AzAla) single bandpass emission filter and a Plan Fluor 60x/A1.2 WI. b Live cell fluorescence microscopy images of U2OS cells after 24 h incubation with 4CNW‐P4 peptide (50 μM). Fluorescence of peptides is shown in blue (4CNW). Scale bar: 20 μm. Images were obtained by using fluorescence excitation at 340 nm with a ET460/50 m (4CNW) single bandpass emission filter and a Plan Fluor 40X/1.3NA objective. c Flow cytometry of U2OS cells incubated with DMSO, 4CNW‐P3 or 4CNW‐P4 at the indicated times. Fluorescence of a single cell suspension was acquired with a 355 nm laser, 450‐50 detector and FACS‐Diva software. Numbers indicated in graphs show percentage of positive cells.
To assess if 4CNW‐P4 was penetrating cells, U2OS cells were incubated with 50 μM peptide for 24 h. Cells were then imaged by fluorescence microscopy using the same conditions as described above.

| Structure (SMILES) | intracellular fluorescence (cell uptake) [1] | intracellular fluorescence (cell uptake) (50 µM peptide, 24 h, ET460/50m emission filter) |
| --- | --- | --- |
| CC(=O)N[C@@H](Cc1c[nH]c2cccc(C#N)c12)C(=O)NCC(=O)N[C@@H](CCCNC(=N)N)C(=O)N[C@@H](CCCCN)C(=O)N[C@@H](CCCCN)C(=O)N[C@@H](CCCNC(=N)N)C(=O)N[C@@H](CCCNC(=N)N)C(=O)N[C@@H](CCC(N)=O)C(=O)N[C@@H](CCCNC(=N)N)C(=O)N[C@@H](CCCNC(=N)N)C(=O)N[C@@H](CCCNC(=N)N)C(=O)N1CCC[C@H]1C(=O)N[C@@H](CCC(N)=O)C(=O)N1CCC[C@H]1C(=O)N[C@@H](CCCCN)C(=O)N[C@@H](CCCCN)C(=O)N[C@@H](CCCCN)C(=O)N[C@@H](CCCNC(=N)N)C(=O)N[C@@H](CCCCN)C(=O)N[C@H](C(N)=O)C(C)C [4CNW‐P3] (Ac-[Trp(4-CN)]GRKKRRQRRRPQPKKKRKV-NH2) | considerable intracellular fluorescence | – |
| CC[C@H](C)[C@@H]1NC(=O)[C@H](Cc2c[nH]c3ccccc23)NC(=O)[C@H](Cc2c[nH]c3cccc(C#N)c23)NC(=O)[C@H](CC(=O)O)NC(=O)CNC(=O)[C@H](CO)NC(=O)[C@H](CC(=O)O)NC(=O)[C@H](CC(=O)O)NC(=O)[C@H](CC(C)C)NC(=O)[C@H](Cc2ccc(O)cc2)NC(=O)[C@H](CC(C)C)NC(=O)[C@@H](Cc2c[nH]c3ccccc23)NC(=O)CSC[C@@H](C(=O)NCC(N)=O)NC1=O [4CNW‐P4] | – | appreciable intracellular fluorescence |
| CC(=O)N[C@@H](Cc1ccc2cccccc1-2)C(=O)NCC(=O)N[C@@H](CCCNC(=N)N)C(=O)N[C@@H](CCCCN)C(=O)N[C@@H](CCCCN)C(=O)N[C@@H](CCCNC(=N)N)C(=O)N[C@@H](CCCNC(=N)N)C(=O)N[C@@H](CCC(N)=O)C(=O)N[C@@H](CCCNC(=N)N)C(=O)N[C@@H](CCCNC(=N)N)C(=O)N[C@@H](CCCNC(=N)N)C(=O)N1CCC[C@H]1C(=O)N[C@@H](CCC(N)=O)C(=O)N1CCC[C@H]1C(=O)N[C@@H](CCCCN)C(=O)N[C@@H](CCCCN)C(=O)N[C@@H](CCCCN)C(=O)N[C@@H](CCCNC(=N)N)C(=O)N[C@@H](CCCCN)C(=O)N[C@H](C(N)=O)C(C)C [AzAla‐P3] (Ac-[Ala(azulen-1-yl)]GRKKRRQRRRPQPKKKRKV-NH2) | considerable intracellular fluorescence | – |
